# From ChEMBL document CHEMBL1153686, “On the microbial biogeneration of (R) -jasmolactone” (1993)
# Experiments:
# Type in all cases: functional
# Scheffersomyces stipitis [1] = experiment: E-5-decen-4-olide Isolated at 24 hours incubation of compound in Pichia stipitis
# Kodamaea ohmeri [2] = experiment: Decan-4-olide Isolated at 24 hours incubation of compound in Pichia ohmeri
# Kodamaea ohmeri [3] = experiment: E-5,Z-7-dodien-4-olide solated at 24 hours incubation of compound in Pichia ohmeri
# Scheffersomyces stipitis [4] = experiment: E-5,Z-7-dodien-4-olide Isolated at 24 hours incubation of compound in Pichia stipitis
# Kodamaea ohmeri [5] = experiment: E-5-decen-4-olide Isolated at 24 hours incubation of compound in Pichia ohmeri
# Scheffersomyces stipitis [6] = experiment: […] Isolated at 24 hours incubation of compound in Pichia stipitis
# Kodamaea ohmeri [7] = experiment: Nonan-4-olide Isolated at 24 hours incubation of compound in Pichia ohmeri
# Kodamaea ohmeri [8] = experiment: […] Isolated at 24 hours incubation of compound in Pichia ohmeri
# Scheffersomyces stipitis [9] = experiment: Octane-4-olide Isolated at 24 hours incubation of compound in Pichia stipitis
# Scheffersomyces stipitis [10] = experiment: Hexane-4-olide Isolated at 24 hours incubation of compound in Pichia stipitis
# Kodamaea ohmeri [11] = experiment: Hexane-4-olide Isolated at 24 hours incubation of compound in Pichia ohmeri
# Scheffersomyces stipitis [12] = experiment: 5-octen-4-olide Isolated at 24 hours incubation of compound in Pichia stipitis
# Scheffersomyces stipitis [13] = experiment: Z-7-decen-5-olide Isolated at 24 hours incubation of compound in Pichia stipitis
# Kodamaea ohmeri [14] = experiment: Z-7-decen-5-olide Isolated at 24 hours incubation of compound in Pichia ohmeri
# Scheffersomyces stipitis [15] = experiment: Z-6, Z-9-dodecadien-4-olide Isolated at 24 hours incubation of compound in Pichia stipitis
# Scheffersomyces stipitis [16] = experiment: Z-6-dodecen-4-olide Isolated at 24 hours incubation of compound in Pichia stipitis
# Scheffersomyces stipitis [17] = experiment: dodecan-4-olide Isolated at 24 hours incubation of compound in Pichia stipitis
# Kodamaea ohmeri [18] = experiment: Z-6-dodecen-4-olide Isolated at 24 hours incubation of compound in Pichia ohmeri
# Scheffersomyces stipitis [19] = experiment: 5-tetradecen-4-olide Isolated at 24 hours incubation of compound in Pichia stipitis
# Kodamaea ohmeri [20] = experiment: Z-6, Z-9-dodecadien-4-olide Isolated at 24 hours incubation of compound in Pichia ohmeri
# Kodamaea ohmeri [21] = experiment: dodecan-4-olide Isolated at 24 hours incubation of compound in Pichia ohmeri
compound,measurement,setting,value
CC/C=C/C=C/[C@@H]1CCC(=O)O1,Lactone production,Scheffersomyces stipitis [1],8.6
same,Lactone production,Kodamaea ohmeri [2],1.5
same,Lactone production,Kodamaea ohmeri [3],20.5
same,Lactone production,Scheffersomyces stipitis [4],25.09
same,Lactone production,Kodamaea ohmeri [5],7.6
CC/C=C/CC[C@@H]1CCC(=O)O1,Lactone production,Scheffersomyces stipitis [6],0.3
same,Lactone production,Kodamaea ohmeri [7],5.9
same,Lactone production,Kodamaea ohmeri [8],1.1
same,Lactone production,Scheffersomyces stipitis [9],4
CC/C=C/CCCC1CCC(=O)O1 (stereo unspecified),Lactone production,Scheffersomyces stipitis [10],3.2
same,Lactone production,Kodamaea ohmeri [11],8.25
same,Lactone production,Scheffersomyces stipitis [12],11.9
CC/C=C/C[C@@H]1CCC(=O)O1,Lactone production,Scheffersomyces stipitis [13],12.5
same,Lactone production,Kodamaea ohmeri [14],12.3
CCCCCCCC/C=C/CCCC1CCC(=O)O1 (stereo unspecified),Lactone production,Scheffersomyces stipitis [15],16.7
same,Lactone production,Scheffersomyces stipitis [16],11
same,Lactone production,Scheffersomyces stipitis [17],4
same,Lactone production,Kodamaea ohmeri [18],11.8
same,Lactone production,Scheffersomyces stipitis [19],2.6
same,Lactone production,Kodamaea ohmeri [20],25.6
same,Lactone production,Kodamaea ohmeri [21],4.6
